The results in this text go back to patent publication US7256202B2, “Composition and method for treatment of hepatic encephalopathy” (priority 2003, dated 2007).

The data set concerns patient with hepatic encephalopathy. In words: Case report: patient with cryptogenic cirrhosis and hepatic encephalopathy treated with lactulose, then PEG 3350/lactulose. In kind it is in vivo, human. An excerpt:
The patient is a person with cryptogenic cirrhosis, a type of cirrhosis which has unknown etiology. They have had extensive workups for chronic anemia in one of the major California hospitals and was placed on neomycin, Lasix, iron sulfate, lactulose, and Prevacid; they also were on a restricted protein diet to reduce ammonia production. They had intermittent episodes of hepatic encephalopathy during their hospitalization. The patient's hemoglobin slowly drops and they require transfusions periodically because of portal gastropathy. […] Although the therapeutic range is three to four bowel movements per day, it is very difficult for them to get to that range because of these effects.
The patient has required several hospitalizations for lethargy, declines in hemoglobin, and hepatic encephalopathy. They have intermittent episodes of abdominal discomfort and mild irritation of various small bowel loops.
The platelet count is in the range of 57,000. The lowest level of ammonia has been 30 micromoles/L and several levels have been 80 to 90 micromoles/L with the patient taking the lactulose.
The patient has had three hospitalizations for hepatic encephalopathy and anemia, mostly resulting from poor compliance. The patient's last hospitalization was July 22nd. Four months later, the patient presented us with hepatic encephalopathy and bedsores.
They were switched to 17 g MiraLax® (PEG 3350 powder) combined with 10 g of lactulose dissolved in water and given twice a day. The patient's ammonia level is now in the 70 to 75-range of micromoles/L and holding fairly steady on a maintenance dosage of this composition once per day.
They have achieved clinical and therapeutic levels of ammonia levels, and is oriented to time and place, with no clinical signs of hepatic encephalopathy on physical examination.

Where [1] appears, read: lactulose up to three to four times a day.

The structures appear in SMILES notation.

Regarding `OC[C@H]1O[C@@H](O[C@@H]2[C@@H](CO)OC(O)(CO)[C@H]2O)[C@H](O)[C@@H](O)[C@H]1O` (mixture of isomers) [lactulose], under setting [1], the “bowel movements per day” value was “three to four to five”; the “side effects with the drug” value was “nausea, abdominal discomfort, and bloating sensation”. The “lowest level of ammonia” value (patient taking the lactulose) turned out to be 30 µmol/L.
